Data published in paper PMC3161154 (Journal of the American Chemical Society, 2011).

Tests used:
mTOR = mTOR (Homo sapiens, UniProt P42345); assay: mTor kinase inhibition; type: biochemical; conditions: read-out: mTOR (nM), mTor kinase inhibition
LNCap = assay: cytotoxicity, LNCap; type: cell-based; conditions: read-out: LNCap (nM), cytotoxicity
MDA-468 = assay: cytotoxicity, MDA-468; type: cell-based; conditions: read-out: MDA-468 (nM), cytotoxicity
lymphocyte kinase = conditions: read-out: IC50 lymphocyte kinase; cited from earlier work
[1] = target: phosphatidylinositol 3-kinase; conditions: read-out: IC50 phosphatidylinositol 3-kinase; cited from earlier work

Compound | IC50 (mTOR) | IC50 (LNCap) | IC50 (MDA-468) | IC50 (lymphocyte kinase) | IC50 [1]
CO/C=C/C(=O)c1cc2cnc3c(=N)cc(NC(C)=O)c([nH]1)c23 [Compound 1, lymphostin] | 1.7 nM | 38 nM | 14 nM | 0.05 µM | 0.001 µM
CCC(=O)Nc1cc(=N)c2ncc3cc(C(=O)C=COC)[nH]c1c32 [Compound 4, neolymphostin B] | 1.5 nM | 48 nM | 85 nM | – | –
neolymphostin A [Compound 3] | 0.8 nM | 22 nM | 58 nM | – | –

Second part, led by results:

IC50 (mTOR) | Compound | IC50 (LNCap) | IC50 (MDA-468) | IC50 (lymphocyte kinase) | IC50 [1]
1.8 nM | CC[C@H](C)C(=O)Nc1cc(=N)c2ncc3cc(C(=O)C=COC)[nH]c1c32 [Compound 5, neolymphostin C] | 230 nM | 700 nM | – | –
1.8 nM | COC=CC(=O)c1cc2cnc3c(=N)cc(NC(=O)CC(C)C)c([nH]1)c23 [Compound 6, neolymphostin D] | 230 nM | 700 nM | – | –
